In patent publication US12146004B2, “Polymyxin compounds and uses thereof” (priority 2014, dated 2024):
In brackets after ≈: the same amount, converted by molar mass. Like-named read-outs stand apart in the source and are kept apart here.

Assays:
Assay type in all cases: cell-based
[1] = tested on: Acinetobacter baumannii
Method: (§1) To evaluate the potency and spectrum of the compounds, susceptibility testing was performed against up to nine strains of each of the Gram negative pathogens, Escherichia coli, Pseudomonas aeruginosa, Klebsiella pneumoniae and Acinetobacter baumannii.
(§2) The values in Table 2 are MIC (μg/mL) against strains of E. coli, K. pneumoniae, P. aeruginosa and A. baumanii, including strains which show elevated MICs to Polymyxin.
(§3) The values in Table 2A are MIC (μg/mL).
(§4) The in vitro activity of compounds 26 and C7 (FADDI-02) against resistant bacterial strains was compared. The resistant strains included including Escherichia coli, Pseudomonas aeruginosa, Klebsiella pneumoniae and Acinetobacter baumannii strains. The data is provided in Table 2C, where the strains are identified. The values in Table 2 are MIC (μg/mL).

[2] = tested on: Klebsiella pneumoniae
Method: as §1, §2, §3, §4

[3] = tested on: Escherichia coli
Method: as §1, §2, §3, §4

[4] = tested on: Pseudomonas aeruginosa
Method: as §1, §2, §3, §4

| SMILES | MIC A. baumanii 053 [1] [µg/mL] | MIC A. baumanii 056 [1] [µg/mL] | MIC A. baumanii ATCC BAA-747 [1] [µg/mL] | MIC K. pneumoniae 065 [2] [µg/mL] | MIC E. coli 058 [3] [µg/mL] | MIC E. coli 061 [3] [µg/mL] | MIC E. coli ATCC 25922 [3] [µg/mL] | MIC P. aeruginosa 068 [4] [µg/mL] | MIC P. aeruginosa 070 [4] [µg/mL] | MIC P. aeruginosa ATCC 27853 [4] [µg/mL] | MIC A. baumanii ATCC BAA-747 ([1]; strain ATCC BAA-747) [µg/mL] | MIC A. baumanii NCTC 13424 ([1]; strain NCTC 13424) [µg/mL] | MIC K. pneumoniae 065 ([2]; strain 065) [µg/mL] | MIC K. pneumoniae ATCC 13882 ([2]; strain ATCC 13882) [µg/mL] | MIC E. coli 058 ([3]; strain 058) [µg/mL] | MIC E. coli ATCC 25922 ([3]; strain ATCC 25922) [µg/mL] | MIC P. aeruginosa ATCC 27853 ([4]; strain ATCC 27853) [µg/mL] | MIC P. aeruginosa CCUG 59347 ([4]; strain CCUG 59347) [µg/mL] | further results |
| --- | --- | --- | --- | --- | --- | --- | --- | --- | --- | --- | --- | --- | --- | --- | --- | --- | --- | --- | --- |
| CCCCCC/C=C/c1ccc(C[C@H]2NC(=O)[C@H](CCN)NC(=O)[C@@H](NC(=O)[C@H](CN)NC(=O)[C@@H](NC(=O)C3CNCC(CC(C)C)C3)C(C)O)CCNC(=O)[C@H]([C@@H](C)O)NC(=O)[C@H](CCN)NC(=O)[C@H](CCN)NC(=O)[C@H](CC(C)C)NC2=O)cc1 (single isomer, unassigned; isomer 1) [Example 17, (trans-5-(isobutyl-piperidine)-3-carbonyl L-Thr-L-Dap-polymyxin [D-(4-(E)-oct-1-enyl) Phe]-6]heptapeptide Isomer 1] | 2 (≈ 1.63 µM) | 2 (≈ 1.63 µM) | 2 (≈ 1.63 µM) | 4 (≈ 3.26 µM) | 2 (≈ 1.63 µM) | 2 (≈ 1.63 µM) | 2 (≈ 1.63 µM) | 4 (≈ 3.26 µM) | 4 (≈ 3.26 µM) | 2 (≈ 1.63 µM) | – | – | – | – | – | – | – | – | MIC K. pneumoniae 062 [2]: 4 µg/mL (≈ 3.26 µM); MIC K. pneumoniae 063 [2]: 16 µg/mL (≈ 13 µM); MIC K. pneumoniae 064 [2]: 8 µg/mL (≈ 6.52 µM); MIC K. pneumoniae 067 [2]: 32 µg/mL (≈ 26.1 µM); MIC K. pneumoniae ATCC 4352 [2]: 2 µg/mL (≈ 1.63 µM); MIC E. coli 059 [3]: 2 µg/mL (≈ 1.63 µM); MIC E. coli 060 [3]: 2 µg/mL (≈ 1.63 µM) |
| CC(C)C[C@@H]1NC(=O)[C@@H](CC2CCCCC2)NC(=O)[C@H](CCN)NC(=O)[C@@H](NC(=O)[C@H](CN)NC(=O)[C@@H](NC(=O)CC(CN)C2CCCCC2)C(C)O)CCNC(=O)[C@H]([C@@H](C)O)NC(=O)[C@H](CCN)NC(=O)[C@H](CCN)NC1=O (single isomer, unassigned; isomer 1) [Example 42, 4-amino-3-cyclohexylbutanoyl L-Thr-L-Dap-polymyxin [D-cyclohexylalanine]-6 heptapeptide. Isomer 1] | – | – | – | – | – | – | – | – | – | – | 0.125 (≈ 0.111 µM) | 0.125 (≈ 0.111 µM) | 2 (≈ 1.78 µM) | 0.25 (≈ 0.223 µM) | 4 (≈ 3.56 µM) | 0.5 (≈ 0.445 µM) | 0.5 (≈ 0.445 µM) | 0.5 (≈ 0.445 µM) | MIC A. baumanii 053 ([1]; strain 053): >64 µg/mL; MIC A. baumanii 056 ([1]; strain 056): 32 µg/mL (≈ 28.5 µM); MIC K. pneumoniae 063 ([2]; strain 063): 32 µg/mL (≈ 28.5 µM); MIC E. coli 061 ([3]; strain 061): 8 µg/mL (≈ 7.13 µM); MIC E. coli NCTC 9001 ([3]; strain NCTC 9001): 0.06 µg/mL (≈ 0.0535 µM); MIC P. aeruginosa 068 ([4]; strain 068): 2 µg/mL (≈ 1.78 µM); MIC P. aeruginosa 070 ([4]; strain 070): 4 µg/mL (≈ 3.56 µM) |
| CC(C)C[C@@H]1NC(=O)[C@@H](CC2CCCCC2)NC(=O)[C@H](CCN)NC(=O)[C@@H](NC(=O)[C@H](CN)NC(=O)[C@@H](NC(=O)CC(CN)c2ccc(Cl)cc2)C(C)O)CCNC(=O)[C@H]([C@@H](C)O)NC(=O)[C@H](CCN)NC(=O)[C@H](CCN)NC1=O (single isomer, unassigned; isomer 1) [Example 50, 4-amino-3-(4-chlorophenyl) butanoyl L-Thr-L-Dap-polymyxin [D-cyclohexylalanine]-6 heptapeptide. Isomer 1] | 32 (≈ 27.8 µM) | 16 (≈ 13.9 µM) | 0.125 (≈ 0.109 µM) | 1 (≈ 0.869 µM) | 2 (≈ 1.74 µM) | 16 (≈ 13.9 µM) | 0.5 (≈ 0.434 µM) | 1 (≈ 0.869 µM) | 2 (≈ 1.74 µM) | 0.25 (≈ 0.217 µM) | – | – | – | – | – | – | – | – | MIC A. baumanii NCTC 13424 [1]: 0.25 µg/mL (≈ 0.217 µM); MIC K. pneumoniae ATCC 13882 [2]: 0.25 µg/mL (≈ 0.217 µM); MIC P. aeruginosa CCUG 59347 [4]: 0.5 µg/mL (≈ 0.434 µM) |
| CC(C)C[C@@H]1NC(=O)[C@@H](CC2CCCCC2)NC(=O)[C@H](CCN)NC(=O)[C@@H](NC(=O)[C@H](CCN)NC(=O)[C@@H](NC(=O)CC(CN)c2ccccc2)[C@@H](C)O)CCNC(=O)[C@H]([C@@H](C)O)NC(=O)[C@H](CCN)NC(=O)[C@H](CCN)NC1=O (single isomer, unassigned; isomer 1) [Example 56, 4-amino-3-phenylbutanoyl polymyxin [D-cyclohexylalanine]-6 nonapeptide isomer 1] | – | – | – | – | – | – | – | – | – | – | 0.125 (≈ 0.111 µM) | 0.125 (≈ 0.111 µM) | 16 (≈ 14.2 µM) | 0.25 (≈ 0.221 µM) | 16 (≈ 14.2 µM) | 0.25 (≈ 0.221 µM) | 0.25 (≈ 0.221 µM) | 0.5 (≈ 0.442 µM) | – |
